Measurements published in patent US12601740B2 (priority 2021, dated 2026).
≈ marks a conversion by molar mass, not a printed value.

Tests used:
E. coli BAA 2452 = experiment: MIC by phage T7 amplification ELISA, serial microdilution in urine; settings: Escherichia coli, BAA2452, 2 h
E. coli 15597 = experiment: as above; settings: Escherichia coli, 15597, 2 h
E. coli BAA 2523 = experiment: as above; settings: Escherichia coli, BAA2523, 2 h
E. coli BAA 196 = experiment: as above; settings: Escherichia coli, BAA196, 2 h
E. coli BAA 2340 = experiment: as above; settings: Escherichia coli, BAA2340, 2 h
E. coli O157:H7 = experiment: microbe, parasite or virus in culture; type: cell-based; settings: Escherichia coli; E. coli strain O157:H7 in urine, ~1×10^6 cfu/mL, phage T7 amplification 2 hours at 37° C.
E. coli BAA 197 = experiment: MIC by phage T7 amplification ELISA, serial microdilution in urine; settings: Escherichia coli, BAA197, 2 h
E. coli BAA 2471 = experiment: as above; settings: Escherichia coli, BAA2471, 2 h
E. coli BAA 198 = experiment: as above; settings: Escherichia coli, BAA198, 2 h

SMILES	MIC (E. coli BAA 2452)	MIC (E. coli 15597)	MIC (E. coli BAA 2523)	MIC (E. coli BAA 196)	MIC (E. coli BAA 2340)	MIC (E. coli O157:H7)	MIC (E. coli BAA 197)	MIC (E. coli BAA 2471)	MIC (E. coli BAA 198)
CO/N=C(\C(=O)N[C@@H]1C(=O)N2C(C(=O)[O-])=C(C[N+]3(C)CCCC3)CS[C@H]12)c1csc(N)n1 [Cefepime]	68 µg/mL (≈ 141 µM)	8 µg/mL (≈ 16.6 µM)	16 µg/mL (≈ 33.3 µM)	64 µg/mL (≈ 133 µM)	68 µg/mL (≈ 141 µM)	8 µg/mL (≈ 16.6 µM)	> 64 µg/mL	> 256 µg/mL	64 µg/mL (≈ 133 µM)
CC(C)(O/N=C(\C(=O)N[C@@H]1C(=O)N2C(C(=O)[O-])=C(C[n+]3ccccc3)CS[C@H]12)c1csc(N)n1)C(=O)O [Ceftazidime]	16 µg/mL (≈ 29.3 µM)	0.5 µg/mL (≈ 0.915 µM)	> 256 µg/mL	> 64 µg/mL	> 64 µg/mL	256 µg/mL (≈ 468 µM)	> 64 µg/mL	> 256 µg/mL	> 64 µg/mL
CO/N=C(\C(=O)N[C@@H]1C(=O)N2C(C(=O)O)=C(CSc3nc(=O)c(=O)[nH]n3C)CS[C@H]12)c1csc(N)n1 [Ceftriaxone]	68 µg/mL (≈ 123 µM)	8 µg/mL (≈ 14.4 µM)	256 µg/mL (≈ 462 µM)	> 64 µg/mL	> 64 µg/mL	64 µg/mL (≈ 115 µM)	> 64 µg/mL	> 256 µg/mL	> 64 µg/mL
C[C@@H](O)[C@H]1C(=O)N2C(C(=O)O)=C(S[C@@H]3CN[C@H](CNS(N)(=O)=O)C3)[C@H](C)[C@H]12 [Doripenem]	16 µg/mL (≈ 38 µM)	> 64 µg/mL	0.5 µg/mL (≈ 1.19 µM)	16 µg/mL (≈ 38 µM)	16 µg/mL (≈ 38 µM)	0.25 µg/mL (≈ 0.595 µM)	32 µg/mL (≈ 76.1 µM)	256 µg/mL (≈ 609 µM)	32 µg/mL (≈ 76.1 µM)
C[C@@H](O)[C@H]1C(=O)N2C(C(=O)O)=C(S[C@@H]3CN[C@H](C(=O)Nc4cccc(C(=O)O)c4)C3)[C@H](C)[C@H]12 [Ertapenem]	16 µg/mL (≈ 33.6 µM)	0.5 µg/mL (≈ 1.05 µM)	8 µg/mL (≈ 16.8 µM)	64 µg/mL (≈ 135 µM)	68 µg/mL (≈ 143 µM)	2 µg/mL (≈ 4.21 µM)	> 64 µg/mL	> 256 µg/mL	64 µg/mL (≈ 135 µM)
C[C@@H](O)[C@H]1C(=O)N2C(C(=O)O)=C(SCCN=CN)C[C@H]12 [Imipenem]	256 µg/mL (≈ 855 µM)	4 µg/mL (≈ 13.4 µM)	64 µg/mL (≈ 214 µM)	16 µg/mL (≈ 53.4 µM)	> 64 µg/mL	64 µg/mL (≈ 214 µM)	32 µg/mL (≈ 107 µM)	32 µg/mL (≈ 107 µM)	64 µg/mL (≈ 214 µM)
C[C@@H](O)[C@H]1C(=O)N2C(C(=O)O)=C(S[C@@H]3CN[C@H](C(=O)N(C)C)C3)[C@H](C)[C@H]12 [Meropenem]	16 µg/mL (≈ 41.7 µM)	> 64 µg/mL	1 µg/mL (≈ 2.61 µM)	16 µg/mL (≈ 41.7 µM)	16 µg/mL (≈ 41.7 µM)	0.25 µg/mL (≈ 0.652 µM)	64 µg/mL (≈ 167 µM)	16 µg/mL (≈ 41.7 µM)	16 µg/mL (≈ 41.7 µM)
Cc1onc(-c2ccccc2)c1C(=O)N[C@@H]1C(=O)N2[C@@H]1SC(C)(C)[C@@H]2C(=O)O [Oxacillin]	64 µg/mL (≈ 159 µM)	64 µg/mL (≈ 159 µM)	256 µg/mL (≈ 638 µM)	> 64 µg/mL	> 64 µg/mL	> 256 µg/mL	> 64 µg/mL	> 256 µg/mL	> 64 µg/mL
